# Results published in PubChem BioAssay (NCI).
#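 These data come from cells grown in 96-well plates and exposed to compound for 48 hours at five concentrations. At the TGI there is no net growth.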
# Columns and labels:
# Test in all cases: NCI tumour cell line growth inhibition, 48 h
# KM12 colon = system: KM12 colon
# HCT-15 colon = system: HCT-15 colon
# DMS 273 small cell lung = system: DMS 273 small cell lung
# M19-MEL melanoma = system: M19-MEL melanoma
# SK-MEL-28 melanoma = system: SK-MEL-28 melanoma
# SF-539 CNS = system: SF-539 CNS
# OVCAR-8 ovarian = system: OVCAR-8 ovarian
# SN12C renal = system: SN12C renal
# EKVX NSCLC = system: EKVX NSCLC
# U251 CNS = system: U251 CNS
# NCI-H460 lung = system: NCI-H460 lung
# A498 renal = system: A498 renal
# HL-60(TB) leukemia = system: HL-60(TB) leukemia
# SF-295 CNS = system: SF-295 CNS
# KM20L2 colon = system: KM20L2 colon
# SW-620 colon = system: SW-620 colon
# ACHN renal = system: ACHN renal
# K-562 leukemia = system: K-562 leukemia
# OVCAR-4 ovarian = system: OVCAR-4 ovarian
# CCRF-CEM leukemia = system: CCRF-CEM leukemia
# CAKI-1 renal = system: CAKI-1 renal
# XF 498 CNS = system: XF 498 CNS
# HT29 colon = system: HT29 colon
# RXF 393 renal = system: RXF 393 renal
# UACC-257 melanoma = system: UACC-257 melanoma
# HCT-116 colon = system: HCT-116 colon
# 786-0 renal = system: 786-0 renal
# M14 melanoma = system: M14 melanoma
# RXF-631 renal = system: RXF-631 renal
# SK-OV-3 ovarian = system: SK-OV-3 ovarian
# A549 NSCLC = system: A549 NSCLC
# RPMI-8226 leukemia = system: RPMI-8226 leukemia
# MOLT-4 leukemia = system: MOLT-4 leukemia
# NCI-H23 lung = system: NCI-H23 lung
# UACC-62 melanoma = system: UACC-62 melanoma
# SNB-19 CNS = system: SNB-19 CNS
# HOP-18 NSCLC = system: HOP-18 NSCLC
# SNB-75 CNS = system: SNB-75 CNS
# LXFL 529 NSCLC = system: LXFL 529 NSCLC
# HCC-2998 colon = system: HCC-2998 colon
# OVCAR-3 ovarian = system: OVCAR-3 ovarian
# DLD-1 colon = system: DLD-1 colon
# HOP-62 NSCLC = system: HOP-62 NSCLC
# COLO 205 colon = system: COLO 205 colon
# SK-MEL-2 melanoma = system: SK-MEL-2 melanoma
# SR leukemia = system: SR leukemia
# HOP-92 NSCLC = system: HOP-92 NSCLC
# IGROV1 ovarian = system: IGROV1 ovarian
# UO-31 renal = system: UO-31 renal
# SF-268 CNS = system: SF-268 CNS
# MALME-3M melanoma = system: MALME-3M melanoma
# SNB-78 CNS = system: SNB-78 CNS
# DMS 114 small cell lung = system: DMS 114 small cell lung
# NCI-H522 lung = system: NCI-H522 lung
# OVCAR-5 ovarian = system: OVCAR-5 ovarian
# LOX IMVI melanoma = system: LOX IMVI melanoma
# TK-10 renal = system: TK-10 renal
# NCI-H226 lung = system: NCI-H226 lung
# SK-MEL-5 melanoma = system: SK-MEL-5 melanoma
compound,measurement,setting,value
COC1/C(=C\C(C)=O)c2ccccc2N1C(C)=O (stereo unspecified),TGI,KM12 colon,> 100 µM
same,TGI,HCT-15 colon,> 100 µM
same,TGI,DMS 273 small cell lung,> 100 µM
same,TGI,M19-MEL melanoma,> 100 µM
same,TGI,SK-MEL-28 melanoma,> 100 µM
same,TGI,SF-539 CNS,> 100 µM
same,TGI,OVCAR-8 ovarian,> 100 µM
same,TGI,SN12C renal,> 100 µM
same,TGI,EKVX NSCLC,> 100 µM
same,TGI,U251 CNS,> 100 µM
same,TGI,NCI-H460 lung,> 100 µM
same,TGI,A498 renal,> 100 µM
same,TGI,HL-60(TB) leukemia,> 100 µM
same,TGI,SF-295 CNS,> 100 µM
same,TGI,KM20L2 colon,> 100 µM
same,TGI,SW-620 colon,> 100 µM
same,TGI,ACHN renal,> 100 µM
same,TGI,K-562 leukemia,> 100 µM
same,TGI,OVCAR-4 ovarian,> 100 µM
same,TGI,CCRF-CEM leukemia,> 100 µM
same,TGI,CAKI-1 renal,> 100 µM
same,TGI,XF 498 CNS,> 100 µM
same,TGI,HT29 colon,> 100 µM
same,TGI,RXF 393 renal,> 100 µM
same,TGI,UACC-257 melanoma,> 100 µM
same,TGI,HCT-116 colon,> 100 µM
same,TGI,786-0 renal,> 100 µM
same,TGI,M14 melanoma,> 100 µM
same,TGI,RXF-631 renal,> 100 µM
same,TGI,SK-OV-3 ovarian,> 100 µM
same,TGI,A549 NSCLC,> 100 µM
same,TGI,RPMI-8226 leukemia,> 100 µM
same,TGI,MOLT-4 leukemia,> 100 µM
same,TGI,NCI-H23 lung,> 100 µM
same,TGI,UACC-62 melanoma,> 100 µM
same,TGI,SNB-19 CNS,> 100 µM
same,TGI,HOP-18 NSCLC,> 100 µM
same,TGI,SNB-75 CNS,> 100 µM
same,TGI,LXFL 529 NSCLC,> 100 µM
same,TGI,HCC-2998 colon,> 100 µM
same,TGI,OVCAR-3 ovarian,> 100 µM
same,TGI,DLD-1 colon,> 100 µM
same,TGI,HOP-62 NSCLC,> 100 µM
same,TGI,COLO 205 colon,> 100 µM
same,TGI,SK-MEL-2 melanoma,> 100 µM
same,TGI,SR leukemia,> 100 µM
same,TGI,HOP-92 NSCLC,> 100 µM
same,TGI,IGROV1 ovarian,> 100 µM
same,TGI,UO-31 renal,> 100 µM
CC(=O)Nc1ccc(/C=c2\sc3nnc(-c4cccnc4)n3c2=O)cc1,TGI,SF-268 CNS,60 µM
same,TGI,KM12 colon,31 µM
same,TGI,MALME-3M melanoma,37.3 µM
same,TGI,HCT-15 colon,35.9 µM
same,TGI,DMS 273 small cell lung,68.5 µM
same,TGI,M19-MEL melanoma,37.4 µM
same,TGI,SK-MEL-28 melanoma,33 µM
same,TGI,SF-539 CNS,33.3 µM
same,TGI,OVCAR-8 ovarian,32.1 µM
same,TGI,SNB-78 CNS,> 100 µM
same,TGI,SN12C renal,31 µM
same,TGI,EKVX NSCLC,55.2 µM
same,TGI,DMS 114 small cell lung,32.4 µM
same,TGI,U251 CNS,33.5 µM
same,TGI,NCI-H460 lung,30.9 µM
same,TGI,A498 renal,> 100 µM
same,TGI,NCI-H522 lung,33.2 µM
same,TGI,HL-60(TB) leukemia,42.9 µM
same,TGI,SF-295 CNS,> 100 µM
same,TGI,KM20L2 colon,38.6 µM
same,TGI,OVCAR-5 ovarian,67.1 µM
same,TGI,SW-620 colon,34.2 µM
same,TGI,ACHN renal,26.9 µM
same,TGI,K-562 leukemia,70.1 µM
same,TGI,OVCAR-4 ovarian,30.7 µM
same,TGI,CCRF-CEM leukemia,53.9 µM
same,TGI,CAKI-1 renal,35.3 µM
same,TGI,HT29 colon,34.5 µM
same,TGI,RXF 393 renal,37.2 µM
same,TGI,UACC-257 melanoma,49 µM
same,TGI,HCT-116 colon,28.9 µM
same,TGI,786-0 renal,31.4 µM
same,TGI,M14 melanoma,39.2 µM
same,TGI,RXF-631 renal,55.2 µM
same,TGI,LOX IMVI melanoma,30.7 µM
same,TGI,SK-OV-3 ovarian,66 µM
same,TGI,TK-10 renal,57.3 µM
same,TGI,A549 NSCLC,> 100 µM
same,TGI,MOLT-4 leukemia,64.3 µM
same,TGI,NCI-H23 lung,31.4 µM
same,TGI,UACC-62 melanoma,27.7 µM
same,TGI,SNB-19 CNS,77.2 µM
same,TGI,NCI-H226 lung,> 100 µM
same,TGI,SK-MEL-5 melanoma,37.8 µM
same,TGI,HOP-18 NSCLC,55.6 µM
same,TGI,SNB-75 CNS,57.7 µM
same,TGI,LXFL 529 NSCLC,30.8 µM
same,TGI,HCC-2998 colon,35.8 µM
same,TGI,OVCAR-3 ovarian,34 µM
same,TGI,DLD-1 colon,40.7 µM
same,TGI,HOP-62 NSCLC,52.6 µM
same,TGI,COLO 205 colon,29.8 µM
same,TGI,SK-MEL-2 melanoma,46.4 µM
same,TGI,SR leukemia,46.7 µM
same,TGI,HOP-92 NSCLC,44.2 µM
same,TGI,IGROV1 ovarian,32.5 µM
same,TGI,UO-31 renal,24.7 µM
CSc1nnc(C(C#N)C#N)nn1,TGI,SF-268 CNS,> 100 µM
same,TGI,KM12 colon,> 100 µM
same,TGI,MALME-3M melanoma,> 100 µM
same,TGI,HCT-15 colon,> 100 µM
same,TGI,DMS 273 small cell lung,> 100 µM
same,TGI,M19-MEL melanoma,> 100 µM
same,TGI,SF-539 CNS,> 100 µM
same,TGI,OVCAR-8 ovarian,> 100 µM
same,TGI,SNB-78 CNS,> 100 µM
same,TGI,SN12C renal,> 100 µM
same,TGI,EKVX NSCLC,> 100 µM
same,TGI,DMS 114 small cell lung,> 100 µM
same,TGI,U251 CNS,> 100 µM
same,TGI,NCI-H460 lung,> 100 µM
same,TGI,A498 renal,> 100 µM
same,TGI,NCI-H522 lung,> 100 µM
same,TGI,HL-60(TB) leukemia,> 100 µM
same,TGI,SF-295 CNS,> 100 µM
same,TGI,KM20L2 colon,> 100 µM
same,TGI,OVCAR-5 ovarian,> 100 µM
same,TGI,SW-620 colon,> 100 µM
same,TGI,K-562 leukemia,> 100 µM
same,TGI,OVCAR-4 ovarian,> 100 µM
same,TGI,CCRF-CEM leukemia,> 100 µM
same,TGI,CAKI-1 renal,> 100 µM
same,TGI,XF 498 CNS,> 100 µM
same,TGI,HT29 colon,> 100 µM
same,TGI,RXF 393 renal,> 100 µM
same,TGI,UACC-257 melanoma,> 100 µM
same,TGI,HCT-116 colon,> 100 µM
same,TGI,786-0 renal,> 100 µM
same,TGI,M14 melanoma,> 100 µM
same,TGI,RXF-631 renal,> 100 µM
same,TGI,LOX IMVI melanoma,> 100 µM
same,TGI,SK-OV-3 ovarian,> 100 µM
same,TGI,TK-10 renal,> 100 µM
same,TGI,A549 NSCLC,> 100 µM
same,TGI,RPMI-8226 leukemia,> 100 µM
same,TGI,MOLT-4 leukemia,> 100 µM
same,TGI,NCI-H23 lung,> 100 µM
same,TGI,UACC-62 melanoma,> 100 µM
same,TGI,SNB-19 CNS,> 100 µM
same,TGI,NCI-H226 lung,> 100 µM
same,TGI,SK-MEL-5 melanoma,> 100 µM
same,TGI,SNB-75 CNS,> 100 µM
same,TGI,LXFL 529 NSCLC,> 100 µM
same,TGI,HCC-2998 colon,> 100 µM
same,TGI,OVCAR-3 ovarian,> 100 µM
same,TGI,DLD-1 colon,> 100 µM
same,TGI,HOP-62 NSCLC,> 100 µM
same,TGI,COLO 205 colon,> 100 µM
same,TGI,SR leukemia,> 100 µM
same,TGI,HOP-92 NSCLC,> 100 µM
same,TGI,IGROV1 ovarian,> 100 µM
same,TGI,UO-31 renal,> 100 µM
